# Laboratory results: US10137116B2, “Benzimidazole sulfide derivatives for the treatment or prevention of tuberculosis” (priority 2015, dated 2018)
# “Also recorded” adds a separate entry of the source. Where two headings read alike, the source gives them in different places.
# Key:
# [1] = test system: intracellular Mtb-GFP (Mtb-Erdman) in MRC-5 fibroblasts; test: microbe, parasite or virus in culture; format: cell-based, Mycobacterium tuberculosis; conditions: for activity in ex vivo assay: intracellular (ex vivo) assay; for IC50: Mycobacterium tuberculosis, ERDMAN, MRC5
# Mtb H37Rv = test: microbe, parasite or virus in culture; format: cell-based, Mycobacterium tuberculosis; conditions: for IC50: Mycobacterium tuberculosis, H37RV
# [2] = test system: Mtb-Erdman infected MRC-5 human lung fibroblasts; test: Fibroblast survival assay (HTS): protection of MRC-5 lung fibroblasts from Mtb-induced cytotoxicity; format: cell-based, Mycobacterium tuberculosis; conditions: for activity in fibroblast survival assay: concentrations up to 50 μM, FIG. 1
# [3] = test system: intracellular Mtb-GFP in RAW264.7 macrophages; test: microbe, parasite or virus in culture; format: cell-based; conditions: Mycobacterium tuberculosis, FIG. 2B, read-out: IC50 (growth of intracellular bacteria)
# [4] = Intracellular drug quantification in MRC-5 cells (LC/MS); format: in vitro ADME, human; conditions: MRC-5 cells exposed to 2 μM, 48 hours
# Protocol: For intracellular drug quantification, 20000 MRC-5 cells were seeded in 96 well plates and exposed to 2 μM of LPZ. At given time-points, cells were extensively washed with PBS and lysed with 0.1% Triton X-100 in PBS and acetonitrile (1:1 ratio). After spinning at 15,000 g at 4° C., samples were shock frozen in liquid nitrogen and stored at −80° C. for MS.
# Quantification in 7H9 broth was performed with 500 nM of LPZ, acetonitrile was added in a 1:1 ratio at given time-points followed by spinning and shock freezing. The UPLC separation was done on an Agilent 1290 Infinity LC system including the 1290 Infinity LC system Binary Pump with integrated degasser, the High Performance Autosampler and a thermostatted column compartment. The samples (2 μL) were injected into a Zorbax Extend-C18 (2.1×50 mm, 1.8 μm) analytical column operated at 40° C., using H2O—HCOOH 0.1% and CH3CN—HCOOH 0.1% as mobile phases A and B (2 to 100% B in 5 min) at a flow rate of 0.4 mL/min. The UPLC system was interfaced with a 6530 Accurate-Mass Q-TOF LC/MS system (Agilent Technologies). Electrospray-ionisation MS data were acquired in the positive ionization mode, in the mass range m/z 100-1000 (2 spectra/s). […]
# The intracellular LPZ and possible metabolites were quantified at different time-points over a period of 48 hours using LC/MS.
# [5] = Drug quantification in 7H9 broth (LC/MS); format: physicochemical; conditions: 500 nM, 48 hours, FIG. 3C
# Protocol: Quantification in 7H9 broth was performed with 500 nM of LPZ, acetonitrile was added in a 1:1 ratio at given time-points followed by spinning and shock freezing. The UPLC separation was done on an Agilent 1290 Infinity LC system including the 1290 Infinity LC system Binary Pump with integrated degasser, the High Performance Autosampler and a thermostatted column compartment. The samples (2 μL) were injected into a Zorbax Extend-C18 (2.1×50 mm, 1.8 μm) analytical column operated at 40° C., using H2O—HCOOH 0.1% and CH3CN—HCOOH 0.1% as mobile phases A and B (2 to 100% B in 5 min) at a flow rate of 0.4 mL/min. The UPLC system was interfaced with a 6530 Accurate-Mass Q-TOF LC/MS system (Agilent Technologies). Electrospray-ionisation MS data were acquired in the positive ionization mode, in the mass range m/z 100-1000 (2 spectra/s). Experimental parameters were set as follows: Fragmentor: 190V, Vcap: 3500 V, gas temperature: 300° C., sheath gas temperature: 350° C. External calibration was carried out with a solution of ESI_L (Agilent). Data were processed using MassHunter.
# In mycobacterial growth medium, the results were markedly different. A rapid decay of LPZ was also observed confirming the instability of this drug. However, though LPZS was detectable in increasing amounts over time, it was not the major product of LPZ decay (FIG. 3C). […]
# [6] = test system: Mycobacterium tuberculosis H37Rv; test: REMA MIC; format: cell-based
# [7] = test system: Mycobacterium tuberculosis Erdman; test: REMA MIC; format: cell-based
# [8] = test system: Mycobacterium tuberculosis HN878 (Beijing strain); test: REMA MIC; format: cell-based
# [9] = test system: Mycobacterium abcessus 2005-0524; test: REMA MIC; format: cell-based; conditions: 20050524
# Mycobacterium avium = test: REMA MIC; format: cell-based
# [10] = test system: Mycobacterium bolletii 1999-0888; test: REMA MIC; format: cell-based; conditions: Mycobacteroides abscessus, 19990888
# Mycobacterium marinum M = test: REMA MIC; format: cell-based
# [11] = test system: Mycobacterium massiliense 2005-0484; test: REMA MIC; format: cell-based; conditions: Mycobacteroides abscessus, 20050484
# [12] = test system: Mycobacterium smegmatis mc2155; test: microbe, parasite or virus in culture; format: cell-based; conditions: Mycolicibacterium smegmatis
# [13] = test system: Mycobacterium vaccae ATCC 15483; test: REMA MIC; format: cell-based; conditions: Mycolicibacterium vaccae, ATCC15483
# Pseudomonas aeruginosa = test: REMA MIC; format: cell-based
# Pseudomonas putida = test: REMA MIC; format: cell-based
# Salmonella typhimurium = test: REMA MIC; format: cell-based; conditions: Salmonella enterica
# Staphylococcus aureus = test: REMA MIC; format: cell-based
# Bacillus subtilis = test: REMA MIC; format: cell-based
# Candida albicans = test: REMA MIC; format: cell-based
# [14] = test system: Corynebacterium diphtheriae; test: REMA MIC; format: cell-based
# [15] = test system: Corynebacterium glutamicum; test: REMA MIC; format: cell-based
# Enterococcus faecalis = test: REMA MIC; format: cell-based
# Escherichia coli = test: REMA MIC; format: cell-based
# Listeria monocytogenes = test: REMA MIC; format: cell-based
# Micrococcus Luteus = test: REMA MIC; format: cell-based
# Mtb strains = test: MIC, summary statement for Mtb strains; format: cell-based; conditions: Mycobacterium tuberculosis; Mtb strains such as H37Rv, Erdman and HN878 (Table 3)
# non-Mtb strains = test: MIC, summary statement for non-Mtb strains; format: cell-based; conditions: other non-Mtb strains such as Mycobacterium abcessus 2005-0524 or Escherichia coli
# Mtb-H37Rv = format: in vivo, BALB/c mice; conditions: 300 mg/kg twice a day for 9 days, vs vehicle TPGS, FIG. 4
# THP-1 = format: cell-based
# From the text: (§1) Cytotoxicity of LPZS on THP1 macrophages, human liver hepatoma cells (HuH7-D12), human lung epithelial carcinoma cells (A549) and human embryonic liver cells (HepG2) (Table 5).
# HepG2 = format: cell-based, human
# From the text: as §1
# [16] = parameters: species or system BALB/c mice; conditions: BALB/c, mouse, in vivo, 0.5 h
# Protocol: For pharmacokinetic studies BALB/c mice (18-20 g) were given 100 mg/kg or 300 mg/kg LPZS in 20% TPGS (D-α tocopheryl polyethylene glycol 1000 succinate). At given time-points, blood from 3 mice was taken and, after spinning, serum was treated with acetonitrile (1:4 ratio). After a second spin, supernatants were frozen for LC/MS experiments.
# BALB/c mice were given 100 mg/kg or 300 mg/kg of LPZS by oral gavage and serum levels were determined after 0.5, 1, 2, 4, 8 and 24 hours (FIG. 5).
# [17] = doses as high as 300 mg/kg twice a day
# human proton pump = human proton pump (Homo sapiens, UniProt P20648); conditions: cited from earlier work
# [18] = table values in μM or words, read-out: IC50 against Mtb in broth
# [19] = table values in μM or words, read-out: IC50 intracellular
# Sequence of human proton pump (P20648 whole entry): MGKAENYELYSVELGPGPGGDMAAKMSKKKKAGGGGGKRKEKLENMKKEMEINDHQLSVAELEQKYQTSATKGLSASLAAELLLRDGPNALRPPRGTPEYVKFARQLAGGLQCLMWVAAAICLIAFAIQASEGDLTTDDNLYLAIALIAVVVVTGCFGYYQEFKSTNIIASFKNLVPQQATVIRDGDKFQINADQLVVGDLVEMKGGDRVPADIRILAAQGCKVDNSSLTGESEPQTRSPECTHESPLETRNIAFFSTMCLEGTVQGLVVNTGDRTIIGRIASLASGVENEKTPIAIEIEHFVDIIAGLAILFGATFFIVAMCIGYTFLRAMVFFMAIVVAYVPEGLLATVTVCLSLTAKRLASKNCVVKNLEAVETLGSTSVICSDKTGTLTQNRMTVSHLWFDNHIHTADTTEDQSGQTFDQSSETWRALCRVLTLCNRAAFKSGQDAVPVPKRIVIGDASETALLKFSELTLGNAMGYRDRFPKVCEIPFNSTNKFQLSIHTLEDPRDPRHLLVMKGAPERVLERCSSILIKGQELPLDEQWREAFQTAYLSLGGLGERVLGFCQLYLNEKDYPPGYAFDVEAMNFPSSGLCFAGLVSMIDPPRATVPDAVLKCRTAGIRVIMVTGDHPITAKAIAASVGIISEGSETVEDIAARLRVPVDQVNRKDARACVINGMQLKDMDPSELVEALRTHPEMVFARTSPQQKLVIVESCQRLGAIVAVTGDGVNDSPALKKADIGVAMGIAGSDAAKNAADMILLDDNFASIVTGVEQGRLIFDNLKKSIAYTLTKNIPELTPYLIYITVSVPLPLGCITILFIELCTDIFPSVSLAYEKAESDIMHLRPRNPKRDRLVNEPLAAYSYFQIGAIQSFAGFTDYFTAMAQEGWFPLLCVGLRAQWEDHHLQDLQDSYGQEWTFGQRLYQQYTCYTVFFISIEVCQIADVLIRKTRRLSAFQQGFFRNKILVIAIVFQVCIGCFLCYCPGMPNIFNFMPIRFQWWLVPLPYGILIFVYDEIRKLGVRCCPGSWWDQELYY
# Sequence of human proton pump (P51164 whole entry partner): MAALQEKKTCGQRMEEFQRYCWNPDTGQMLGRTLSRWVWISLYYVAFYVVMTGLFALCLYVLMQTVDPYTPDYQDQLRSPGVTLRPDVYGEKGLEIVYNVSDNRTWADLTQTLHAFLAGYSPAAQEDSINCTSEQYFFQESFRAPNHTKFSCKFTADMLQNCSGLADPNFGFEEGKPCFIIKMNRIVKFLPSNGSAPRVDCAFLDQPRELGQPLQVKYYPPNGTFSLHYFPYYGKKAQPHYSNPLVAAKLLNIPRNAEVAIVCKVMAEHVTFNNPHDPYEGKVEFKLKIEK
molecule,measurement,setting,value
COc1ccc2[nH]c(SCc3ncc(C)cc3C)nc2c1,IC50 intracellular,[1]; table values in μM or words,inactive
same,IC50 against Mtb in broth,Mtb H37Rv; table values in μM or words,inactive
Cc1c(SCCN2CCc3ccccc3C2)ccnc1CSc1nc2ccccc2[nH]1,IC50,Mtb H37Rv; [18],2.7 µM
FC(F)(F)Oc1ccc(C2CCN(c3ccc(CSc4nc5ccccc5[nH]4)cc3)CC2)cc1,IC50,Mtb H37Rv; [18],~48 µM
COc1ccnc(C[S+]([O-])c2nc3cc(OC(F)F)ccc3[nH]2)c1OC.[Na+] (stereo not shown),IC50 intracellular,[1]; table values in μM or words,Inactive
same,IC50 against Mtb in broth,Mtb H37Rv; table values in μM or words,Inactive
Cc1c(OCC(F)(F)F)ccnc1CS(=O)(=O)c1nc2ccccc2[nH]1,IC50 intracellular,[1]; table values in μM or words,Inactive
same,IC50 against Mtb in broth,Mtb H37Rv; table values in μM or words,Inactive
5-hydroxy Lansoprazole potassium,activity in ex vivo assay,[1],inactive
same,activity in in vitro assay,Mtb H37Rv,inactive
"Cc1c(OCC(F)(F)F)ccnc1C[S+]([O-])c1nc2ccccc2[nH]1 (racemic) [LPZ, (RS)-2-([3-méthyl-4-(2,2,2-trifluoroéthoxy)pyridin-2-yl]méthylsulfinyl)-1H-benzimidazole]",fibroblast survival / protection against Mtb induced killing,[2],supported fibroblast survival at rates comparable to well established anti-mycobacterial drugs such as Rifampicin and Moxifloxacine; also recorded: inhibits the growth of Mtb as well as Rifampicin or Moxifloxacine
same,IC50,"[1]; MRC-5 cells, FIG. 2A, read-out: IC50 (Mtb-GFP signal)",1.47 µM
same,IC50,[1]; [19],1.47 µM
same,IC50,[3],2.2 µM
same,IC50,Mtb H37Rv; read-out: IC50 (Mtb in broth),32.8 µM
same,IC50,Mtb H37Rv; read-out: IC50 (inhibit Mtb),< 40 µM
same,IC50,Mtb H37Rv; [18],32.8 µM
same,intracellular decay,[4],rapid intracellular decay
same,decay in mycobacterial growth medium,[5],rapid decay
Cc1c(Cl)ccnc1CSc1nc2ccccc2[nH]1 [4-Desmethoxypropoxyl-4-chloro rabebrazole sulfide],IC50,[1]; [19],6 µM
same,IC50,Mtb H37Rv; read-out: IC50 (Mtb in broth),6 to 12 µM
same,IC50,Mtb H37Rv; [18],6 to 12 µM
"Cc1c(OCC(F)(F)F)ccnc1CSc1nc2ccccc2[nH]1 [LPZS, Lanzoprazole sulfide]",IC50,[1]; read-out: IC50 (intracellular activity),0.59 µM
same,IC50,"[1]; table values in nM, read-out: IC50 intracellular",0.59 µM
same,IC50,Mtb H37Rv; read-out: IC50 (Mtb in broth),0.46 µM
same,IC50,"Mtb H37Rv; table values in nM, read-out: IC50 against Mtb in broth",0.46 µM
same,MIC,[6],1.13 µM
same,MIC,[7],1.21 µM
same,MIC,[8],1.74 µM
same,MIC,[9],> 100 µM
same,MIC,Mycobacterium avium,> 100 µM
same,MIC,[10],> 100 µM
same,MIC,Mycobacterium marinum M,100 µM
same,MIC,[11],> 100 µM
same,MIC,[12],> 100 µM
same,MIC,[13],> 100 µM
same,MIC,Pseudomonas aeruginosa,> 100 µM
same,MIC,Pseudomonas putida,> 100 µM
same,MIC,Salmonella typhimurium,> 100 µM
same,MIC,Staphylococcus aureus,> 100 µM
same,MIC,Bacillus subtilis,> 100 µM
same,MIC,Candida albicans,> 100 µM
same,MIC,[14],> 100 µM
same,MIC,[15],> 100 µM
same,MIC,Enterococcus faecalis,> 100 µM
same,MIC,Escherichia coli,> 100 µM
same,MIC,Listeria monocytogenes,> 100 µM
same,MIC,Micrococcus Luteus,> 100 µM
same,MIC,Mtb strains,< 2 µM
same,MIC,non-Mtb strains,> 100 µM
same,bacterial burden (cfu) in the lungs,Mtb-H37Rv,significantly reduced
same,TD50,THP-1,75 µM
same,TD99,THP-1,>100 µM
same,TD50,HepG2,25 µM
same,TD99,HepG2,100 µM
same,concentration in blood relative to Cmax,[16],100 % of Cmax
same,signs of toxicity in mice,[17],no signs of toxicity
same,activity towards the human proton pump,human proton pump,no activity
COc1ccc2[nH]c([S+]([O-])Cc3ncc(C)c(OC)c3C)nc2c1 (stereo not shown) [Omeprazole],activity in fibroblast survival assay,[2],inactive
same,activity in ex vivo assay,[1],inactive
same,activity in in vitro assay,Mtb H37Rv,inactive
COc1ccnc(C[S+]([O-])c2nc3ccc(OC(F)F)cc3[nH]2)c1OC (stereo not shown) [Pantoprazole],activity in fibroblast survival assay,[2],inactive
same,activity in ex vivo assay,[1],inactive
same,activity in in vitro assay,Mtb H37Rv,inactive
Cc1c(OCC(F)(F)F)ccnc1C[S+]([O-])c1nc2ccccc2[nH]1 (stereo not shown) [R-Lansoprazole],IC50,[1]; [19],1.47 µM
same,IC50,Mtb H37Rv; read-out: IC50 (inhibit Mtb),< 40 µM
same,IC50,Mtb H37Rv; [18],32.8 µM
COCCCOc1ccnc(C[S+]([O-])c2nc3ccccc3[nH]2)c1C (stereo not shown) [Rabeprazole sodium],IC50,[1]; [19],6 µM
same,IC50,Mtb H37Rv; read-out: IC50 (Mtb in broth),25 µM
same,IC50,Mtb H37Rv; read-out: IC50 (inhibit Mtb),< 40 µM
same,IC50,Mtb H37Rv; [18],25 µM
COCCCOc1ccnc(CSc2nc3ccccc3[nH]2)c1C [Rabeprazole sulfide],IC50,[1]; [19],3 µM
same,IC50,Mtb H37Rv; read-out: IC50 (Mtb in broth),5 µM
same,IC50,Mtb H37Rv; [18],5 µM
COc1ccc2[nH]c([S+]([O-])Cc3ncc(C)c(OC)c3C)nc2c1 (stereo not shown) [drawing 26],IC50 intracellular,[1]; table values in μM or words,Inactive
same,IC50 against Mtb in broth,Mtb H37Rv; table values in μM or words,Inactive
